Experimental data: PMC2394453 (British Journal of Cancer, 2003)

Assay: Plasma pharmacokinetics of simvastatin and simvastatin hydroxy acid after oral simvastatin alone and combined with imatinib in CML patients (LC/MS/MS)
Conditions: for t1/2: simvastatin in plasma, mean±s.d., in h

Tmax (both, human, plasma, po, 40 mg): 1 h | Vd/F (both, human, plasma, po, 40 mg): 3120 ± 2750 L | half-life (both, human, plasma, po, 40 mg): 1.4 h | mean reduction of total-body clearance from plasma (CL/F) (simvastatin 40 mg coadministered with imatinib 400 mg, P<0.001): 70% | t1/2 (40 mg simvastatin oral alone (day 1)): 1.4±0.8 | t1/2 (40 mg simvastatin oral plus 400 mg imatinib oral (day 8)): 2.7±1.3
Compound: CCC(C)(C)C(=O)O[C@H]1C[C@@H](C)C=C2C=C[C@H](C)[C@H](CC[C@@H]3C[C@@H](O)CC(=O)O3)[C@H]21 [Simvastatin]
